Source: the supplement of paper PMC5770543
± gives the standard deviation.

Columns and labels:
[1] = tested on: Plasmodium falciparum 3D7; assay: EC50 growth inhibition (60 h, SYBR Green); conditions: stage: ring-stage start
[2] = tested on: Toxoplasma gondii RH tachyzoites; assay: % growth inhibition vs DMSO (48 h luciferase); higher = more inhibition; conditions: 10 µM
[3] = tested on: Plasmodium falciparum 3D7; assay: % inhibition of schizont-to-ring transition vs DMSO; higher = more inhibition
How it was run: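 Schizont-to-ring transition inhibition is the formation of new rings relative to vehicle controls. Tightly synchronised P. falciparum schizonts at about 40–42 hours post-invasion (1% parasitemia, 2.5% hematocrit, AlbuMAX-supplemented RPMI) were treated with compound at 1, 3 or 10 µM, alongside vehicle and positive controls. After glutaraldehyde fixation, Triton permeabilisation and Hoechst 33342 staining, at least 100,000 events were counted by flow cytometry, and values are the mean of three experiments.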

[4] = tested on: Toxoplasma gondii RH tachyzoites; assay: plaque count per well; higher = less inhibition; extreme values may be limits of the assay; conditions: 10 µM; 8-10 days
Procedure: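 T. gondii RH tachyzoites expressing firefly luciferase were grown in HFF monolayers for 48 h with compound. % growth inhibition at 10 µM and EC50 (2-fold dilutions from 10 µM) were read by luminescence relative to 1% DMSO; EC50 listed as 10 (not determined, <80% inhibition) is left out. Plaque assays: 50 tachyzoites per well with 10 µM compound for 8-10 days, giving plaque count and area by crystal violet/ImageJ. Egress: median time to egress after 1 µM A23187 ionophore following 24 h of 10 µM compound (DMSO ~1.8 min; >10 = no egress within 10 min).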
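Wherever % growth inhibition vs DMSO (48 h luciferase) is given: tested in triplicate wells of 96-well plates on confluent HFF monolayers, with 1% DMSO wells as negative control in four replicates.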

Compound	EC50 growth inhibition [1]	% growth inhibition [2]	% inhibition of schizont-to-ring transition ([3]; 1 µM)	% inhibition of schizont-to-ring transition ([3]; 3 µM)	% inhibition of schizont-to-ring transition ([3]; 10 µM)	plaque count per well [4]
CCN(CC)CCCNc1ccnc2cc3ccccc3cc12	312 nM	29.2 ± 27%	19.5%	41.2%	42.7%	–
Cc1cc(Nc2ccc3ccccc3c2)n2ncnc2n1	53.7 nM	24.1 ± 23%	57.1%	61.7%	61.5%	–
CCOc1ccc(Nc2ccnc3cc(Cl)ccc23)cc1	3740 nM	64.1 ± 7.2%	23.3%	27.2%	30%	–
CC(=O)c1ccc(NC(=O)CSc2nc(-c3ccccc3Cl)ns2)cc1	412 nM	78.8 ± 6.6%	34%	71.8%	76.5%	–
Oc1c2c(nc3cc(-c4ccccc4)nn13)CCCC2	3790 nM	26.5 ± 12%	0.423%	6.47%	21.9%	–
C=CCc1c(C)nc2ccccc2c1O	2260 nM	72.7 ± 2.5%	27.3%	29.6%	40.5%	–
CN(C)CCNc1cc(-c2ccccc2)nc2ccccc12	936 nM	66.7 ± 1.5%	6.36%	21.7%	63.2%	–
COc1ccc(C(C)=O)cc1N1C(=O)C2C(C1=O)C1(c3ccccc3)C(=O)C2(c2ccccc2)C(c2ccc(C)cc2)=C1c1ccc(C)cc1 (stereo not given)	273 nM	79.2 ± 1.3%	7.25%	20.5%	44.9%	–
Cc1nc2ccccc2c(O)c1CC=C(Cl)Cl	4560 nM	79.46 ± 0.64%	10.8%	31.3%	67.4%	–
Cc1ccc2c(C)nc(Nc3nc(C)cc(-c4ccccc4)n3)nc2c1	6670 nM	70.4 ± 25%	17.7%	37.8%	55.7%	–
CCN(CC)CCNc1ccnc2cc3ccccc3cc12	192 nM	32.4 ± 7.3%	23.6%	49%	53.2%	–
Cc1cc(Nc2ccc(Cl)cc2)n2nc(C(F)(F)F)nc2n1	56.2 nM	62.7 ± 3.6%	52.9%	59.3%	58.4%	–
COc1cc2c3cc1Oc1c(OC)c(OC)cc4c1C(Cc1ccc(O)c(c1)Oc1ccc(cc1)CC3N(C)CC2)N(C)CC4 (stereo not given)	1360 nM	51.7 ± 6.6%	0.0123%	3.67%	27.2%	–
CC1CCCCN1CCCNC(=O)c1ccc2c(c1)sc1nc(-c3ccc(F)cc3)cn12 (stereo not given)	400 nM	48.7 ± 9.3%	15.8%	61.1%	73.1%	–
Cc1ccc(-c2nc3ccccc3o2)cc1NCc1cc(Cc2ccccc2)ccc1O	–	< 0%	36.5%	47.5%	56.6%	36
COc1ccc(C2C(C(=O)Nc3cccc(OC)c3)c3ccccc3C(=O)N2C2CCCCC2)cc1 (stereo not given)	–	13.5 ± 15%	12.8%	71.3%	76.4%	0
CCC(C)NCC(O)(c1ccc(Cl)cc1)c1ccc(Cl)cc1 (stereo not given)	632 nM	74.6 ± 8.3%	38.4%	57%	63.8%	–
CC(=O)c1sc(NC(=O)Nc2ccc(C)cc2C)nc1C	1780 nM	67.5 ± 3.4%	10.5%	30.8%	49.7%	–
